Measurements taken from patent US6596687B1, “Cell adhesion inhibitors” (Biogen, Inc., priority 1995, dated 2003).
Where two headings read alike, the source gives them in different places. Numbered stars: 1 amine (or outer) side, 2 acyl side, 3 side chain; on linkers, the order of the positions; unused ones are H or OH. Square brackets hold non-standard residues; d marks the D form. Peptide text beside a SMILES is read from it. * marks the point of attachment. 2‑MPUPA = 4-(N′-(2-methylphenyl)urea)phenylacetyl, Cc1ccccc1NC(=O)Nc1ccc(CC(=O)*)cc1; X2 = O=C(Cc1ccc(N[*:1])cc1)[*:2]; NH(2-Me-phenyl) = Cc1ccccc1N*; PhAc = O=C(Cc1ccccc1)*; CO = O=C([*:1])[*:2]; NHPh = c1ccc(N*)cc1; Ahx = NCCCCCC(=O)O; Bn = c1ccc(C*)cc1; NHiBu = CC(C)CN*

B1: Compound 186 (peptide)
peptide: LDVM
HELM: PEPTIDE1{[O=C(c1ccc2ccccc2n1)[*:2]].L.D.V.M}$$$$V2.0
SMILES: CSCC[C@H](NC(=O)[C@@H](NC(=O)[C@H](CC(=O)O)NC(=O)[C@H](CC(C)C)NC(=O)c1ccc2ccccc2n1)C(C)C)C(=O)O
B2: Compound 167 (peptide)
peptide: LDVM
HELM: PEPTIDE1{[CC(C)(C)OC(=O)[*:2]].L.D.V.M.[CO[*:1]]}$$$$V2.0
SMILES: COC(=O)[C@H](CCSC)NC(=O)[C@@H](NC(=O)[C@H](CC(=O)O)NC(=O)[C@H](CC(C)C)NC(=O)OC(C)(C)C)C(C)C
B3: Compound 168 (peptide)
peptide: LDVM
HELM: PEPTIDE1{[O=C(c1ccc2ccccc2n1)[*:2]].L.D.V.M.[CO[*:1]]}$$$$V2.0
SMILES: COC(=O)[C@H](CCSC)NC(=O)[C@@H](NC(=O)[C@H](CC(=O)O)NC(=O)[C@H](CC(C)C)NC(=O)c1ccc2ccccc2n1)C(C)C
B4: Compound 315 (peptide)
peptide: MDVP
HELM: PEPTIDE1{[Cc1ccccc1NC(=O)Nc1ccc(CC(=O)[*:2])cc1].M.D.V.P}$$$$V2.0
SMILES: CSCC[C@H](NC(=O)Cc1ccc(NC(=O)Nc2ccccc2C)cc1)C(=O)N[C@@H](CC(=O)O)C(=O)N[C@H](C(=O)N1CCC[C@H]1C(=O)O)C(C)C

Legend:
VLA4 = biological target: T1, VLA4 (Homo sapiens, UniProt P05556+P13612); assay: Inhibition of VLA4-dependent adhesion of Ramos cells to BSA-CS1; type: cell-based
T1 construct: endogenous in cells; host or cells: Ramos cells
T1 sequence (P13612 34-1032): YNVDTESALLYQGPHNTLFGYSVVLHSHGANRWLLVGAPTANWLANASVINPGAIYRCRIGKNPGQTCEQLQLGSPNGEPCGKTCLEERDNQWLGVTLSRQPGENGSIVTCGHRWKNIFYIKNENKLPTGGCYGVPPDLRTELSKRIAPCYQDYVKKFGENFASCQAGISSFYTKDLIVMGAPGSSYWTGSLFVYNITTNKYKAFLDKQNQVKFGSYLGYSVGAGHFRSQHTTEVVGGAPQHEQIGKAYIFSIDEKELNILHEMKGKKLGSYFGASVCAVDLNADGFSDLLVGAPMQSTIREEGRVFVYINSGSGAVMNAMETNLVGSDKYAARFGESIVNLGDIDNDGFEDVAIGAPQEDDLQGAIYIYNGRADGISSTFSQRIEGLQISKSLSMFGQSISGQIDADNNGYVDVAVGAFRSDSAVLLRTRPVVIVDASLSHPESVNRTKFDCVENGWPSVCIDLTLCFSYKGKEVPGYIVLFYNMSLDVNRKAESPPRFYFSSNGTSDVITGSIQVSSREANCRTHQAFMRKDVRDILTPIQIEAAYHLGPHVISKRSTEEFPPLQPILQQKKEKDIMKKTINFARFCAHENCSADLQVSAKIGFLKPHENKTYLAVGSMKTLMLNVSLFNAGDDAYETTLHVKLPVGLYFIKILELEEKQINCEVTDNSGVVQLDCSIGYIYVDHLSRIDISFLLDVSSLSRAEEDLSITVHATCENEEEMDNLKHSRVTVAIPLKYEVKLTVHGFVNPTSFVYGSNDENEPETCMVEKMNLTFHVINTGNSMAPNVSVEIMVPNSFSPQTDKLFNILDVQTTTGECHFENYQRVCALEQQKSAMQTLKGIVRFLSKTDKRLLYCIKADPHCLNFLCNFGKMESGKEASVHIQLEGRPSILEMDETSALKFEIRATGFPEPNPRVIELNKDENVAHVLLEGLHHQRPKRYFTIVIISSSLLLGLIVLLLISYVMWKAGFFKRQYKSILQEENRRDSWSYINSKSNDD
T1 sequence (P05556 21-798): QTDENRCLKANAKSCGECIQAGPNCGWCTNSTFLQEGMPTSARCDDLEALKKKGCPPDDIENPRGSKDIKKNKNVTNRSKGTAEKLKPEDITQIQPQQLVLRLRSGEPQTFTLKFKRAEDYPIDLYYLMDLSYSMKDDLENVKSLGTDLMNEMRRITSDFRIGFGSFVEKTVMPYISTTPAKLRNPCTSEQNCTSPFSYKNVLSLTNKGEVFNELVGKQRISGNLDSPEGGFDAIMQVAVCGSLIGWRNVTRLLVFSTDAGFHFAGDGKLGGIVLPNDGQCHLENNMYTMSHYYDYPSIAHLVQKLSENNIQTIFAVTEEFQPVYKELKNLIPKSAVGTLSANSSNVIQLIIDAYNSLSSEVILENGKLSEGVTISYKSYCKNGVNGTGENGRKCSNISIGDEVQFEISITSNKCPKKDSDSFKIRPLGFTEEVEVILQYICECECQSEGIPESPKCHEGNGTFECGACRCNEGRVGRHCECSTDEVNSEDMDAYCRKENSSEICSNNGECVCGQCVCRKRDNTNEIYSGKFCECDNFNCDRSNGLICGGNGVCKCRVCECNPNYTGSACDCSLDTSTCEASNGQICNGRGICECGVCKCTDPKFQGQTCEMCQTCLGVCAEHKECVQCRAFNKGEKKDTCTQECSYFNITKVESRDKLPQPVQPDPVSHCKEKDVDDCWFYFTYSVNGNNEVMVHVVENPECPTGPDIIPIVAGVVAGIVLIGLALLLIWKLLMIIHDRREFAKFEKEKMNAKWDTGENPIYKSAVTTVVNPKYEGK
How it was run: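 BCECF-AM-labelled Ramos cells in Tris buffer pH 7.4 with 2 mM MnCl2 were added with compound to wells coated with BSA-conjugated Cys-Tyr-CS1 peptide (1 μg/mL). Cells and compound were incubated for 30 min at room temperature, in triplicate. Inhibition was quantified from bound fluorescence against no-compound controls, with uncoated wells used for nonspecific binding.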

[1] = biological target: T2, VLA-4 (alpha4beta1 integrin) (UniProt P13612 34-1032; P05556 21-798, limits assumed); assay: Ramos/BSA-CS1 adhesion inhibition
T2 construct: whole, on cells; also called very late antigen-4; CD49d/CD29
T2 sequence (P13612 34-1032 limits assumed, chain 1 of 2): as the sequence (P13612 34-1032) above
T2 sequence (P05556 21-798 limits assumed, chain 2 of 2): as the sequence (P05556 21-798) above
Method: Following labelling, the cells were washed twice in assay buffer (24 mM TRIS, 137 mM NaCl, 2.7 mM KCl, pH 7.4, containing 0.1 BSA and 2mM glucose) to remove any cations originating from the culture medium. The cells were then resuspended in assay buffer to 4 ×10^6 cells/mL and 2 mM MnCl_2 was added to upregulate VLA4 on the surface of the cells.
Immediately prior to running the assay, we removed the BSA blocking solution from the 96-well plates and washed the wells with 100 μL of assay buffer. We then added to each well 25 μL of test cell adhesion inhibitory compound at 2×the final concentration and 25 μL of the labelled Ramos cells. […] Each concentration of compound was tested in triplicate. The compound and cells are allowed to incubate for 30 minutes at room temperature.
Percent binding is calculated by the formula: […]

[2] = Ramos cells, BSA-CS1 coated wells, 2 mM MnCl2, 30 minutes at room temperature, read-out: IC50

Row | Molecule | IC50 (VLA4; [2]) [µM] | also measured
1 | Cc1ccccc1NC(=O)Nc1ccc(CC(=O)N[C@@H](CC(C)C)C(=O)N[C@@H](CC(=O)O)C(=O)N[C@H](C(N)=O)[C@@H](C)O)cc1 [Compound 235] | < 0.05 | –
2 | CC(C)[C@H](NC(=O)[C@H](CC(=O)O)NC(=O)CCCCc1ccccc1)C(=O)O [Compound 76] | > 10 | –
3 | O=C(O)CNC(=O)[C@@H]1CCCN1C(=O)[C@H](CC(=O)O)NC(=O)Cc1ccccc1 [Compound 136] (HELM PEPTIDE1{[O=C(Cc1ccccc1)[*:2]].D.P.G}$$$$V2.0) | > 10 | –
4 | CC(C)CNC(=O)[C@@H]1CCCN1C(=O)[C@@H](NC(=O)[C@H](CC(=O)O)NC(=O)[C@H](CC(C)C)NC(=O)Cc1ccc(NC(=O)Nc2ccccc2)cc1)C(C)C [Compound 328] ({NHPh-CO}-[X2]LDVP-NHiBu) | < 0.05 | –
5 | CNC(=O)[C@@H](NC(=O)[C@H](CC(=O)O)NC(=O)[C@H](CCSC)NC(=O)Cc1ccccc1)C(C)C [Compound 183] (HELM PEPTIDE1{[O=C(Cc1ccccc1)[*:2]].M.D.V.[CN[*:1]]}$$$$V2.0) | > 10 | –
6 | CC(C)C[C@H](NC(=O)C1CCCO1)C(=O)N[C@@H](CC(=O)O)C(=O)N[C@H](C(=O)O)C(C)C (stereo partly shown) [Compound 80] | > 10 | –
7 | CNC(=O)[C@@H](NC(=O)[C@H](CC(=O)O)NC(=O)[C@H](CC(C)C)NC(=O)Nc1ccccc1)C(C)C [Compound 187] ({NHPh-CO}-Leu-Asp-Val-NHMe) | > 10 | –
8 | CC(C)CNC(=O)[C@H](CC(=O)O)NC(=O)[C@H](CC(C)C)NC(=O)CCCCc1ccccc1 [Compound 106] | > 10 | –
9 | CC(C)C[C@H](NC(=O)CCc1ccccc1)C(=O)N[C@@H](CC(=O)O)C(=O)N[C@H](C(=O)O)C(C)C [Compound 64] (HELM PEPTIDE1{[O=C(CCc1ccccc1)[*:2]].L.D.V}$$$$V2.0) | > 10 | –
10 | CC(C)C[C@H](NC(=O)Cc1ccccc1)C(=O)N[C@@H](CC(=O)O)C(=O)N1CCC[C@H]1C(=O)NC(C(=O)O)C(=O)O [Compound 138] | > 10 | –
11 | CC(C)[C@H](NC(=O)[C@H](CC(=O)O)NC(=O)OC(C)(C)C)C(=O)N1CCC[C@H]1C(=O)O [Compound 149] (HELM PEPTIDE1{[CC(C)(C)OC(=O)[*:2]].D.V.P}$$$$V2.0) | > 10 | –
12 | CC(C)C[C@H](NC(=O)c1cc2ccccc2cn1)C(=O)N[C@@H](CS)C(=O)N[C@H](C(=O)O)C(C)C [Compound 9] | > 10 | –
13 | CC(C)C[C@H](NC(=O)c1ccccn1)C(=O)N[C@@H](CC(=O)O)C(=O)N[C@H](C(=O)O)C(C)C [Compound 77] | > 10 | –
14 | CC(C)CNC(=O)[C@H](CC(=O)O)NC(=O)[C@H](CC(C)C)NC(=O)CCc1ccc(O)cc1 [Compound 100] | > 10 | –
15 | Cc1ccccc1NC(=O)Nc1ccc(CC(=O)N[C@@H](CO)C(=O)N[C@@H](CC(=O)O)C(=O)N[C@@H](CCC(=O)O)C(N)=O)cc1 [Compound 279] | < 0.05 | –
16 | COC(=O)[C@@H](NC(=O)[C@H](CC(=O)O)NC(=O)[C@H](CC(C)C)NC(=O)Cc1ccccc1)[C@@H](C)OCc1ccccc1 [Compound 192] (PhAc-Leu-Asp-Thr(Bn)-OMe) | 0.05 to 10 | –
17 | CC(C)C[C@H](NC(=O)Cc1ccc(NC(=O)Nc2ccccc2)cc1)C(=O)N[C@@H](CC(=O)O)C(=O)NC(C)C [Compound 215] | 0.05 to 10 | –
18 | CC(C)C[C@H](NC(=O)Cc1ccc(NC(=O)Nc2ccccc2)cc1)C(=O)N[C@@H](CC(=O)O)C(=O)N1CCCCC1 [Compound 218] | 0.05 to 10 | –
19 | CC(C)C[C@H](NC(=O)Cc1ccc(NC(=O)Nc2ccccc2)cc1)C(=O)N[C@@H](CC(=O)O)C(=O)N[C@H](C(=O)NC1CCCCC1)C(C)C [Compound 320] | 0.05 to 10 | –
20 | CNC(=O)[C@@H](NC(=O)[C@H](CC(=O)O)NC(=O)[C@@H]1CCCN1C(=O)Cc1ccccc1)C(C)C [Compound 130] (HELM PEPTIDE1{[O=C(Cc1ccccc1)[*:2]].P.D.V.[CN[*:1]]}$$$$V2.0) | > 10 | –
21 | CNC(=O)[C@@H](NC(=O)[C@H](CC(=O)O)NC(=O)[C@H](CC(C)C)N(C)C(=O)CCc1ccc(O)cc1)C(C)C [Compound 46] | > 10 | –
22 | CC(C)C[C@H](NC(=O)CCc1ccc(O)cc1)C(=O)N[C@@H](CC(=O)O)C(=O)N[C@H](C(=O)N1CCC[C@H]1C(=O)O)C(C)C [Compound 38] | > 10 | –

Row | Molecule | IC50 (VLA4; [2]) [µM] | also measured
23 | COC(=O)[C@@H](NC(=O)[C@H](CC(=O)O)NC(=O)[C@H](CC(C)C)N(C)C(=O)CCc1ccc(O)cc1)C(C)C [Compound 18] | 0.05 to 10 | –
24 | COC(=O)[C@@H]1CCCN1C(=O)[C@@H](NC(=O)[C@H](CC(=O)O)NC(=O)[C@H](CC(C)C)NC(=O)OC(C)(C)C)C(C)C [Compound 40] | > 10 | –
25 | CNC(=O)[C@@H](NC(=O)[C@H](CC(=O)O)NC(=O)[C@H](CC(C)C)NC(=O)Nc1ccc(C)cc1)C(C)C [Compound 48] | > 10 | –
26 | CC(C)CC(NC(=O)C1CCc2ccccc2N1)C(=O)NC(CC(=O)O)C(=O)NC(C(=O)N(C)c1ccccc1)C(C)C (stereo not shown) [Compound 120] | – | IC50 (VLA4): > 10 µM
27 | CC(C)C[C@H](NC(=O)C1Cc2ccccc2CN1)C(=O)N[C@@H](CCC(=O)O)C(=O)N[C@H](C(=O)O)C(C)C (stereo partly shown) [Compound 31] (HELM PEPTIDE1{[O=C(C1Cc2ccccc2CN1)[*:2]].L.E.V}$$$$V2.0) | > 10 | –
28 | CC(C)C[C@H](NC(=O)C1(NC(=O)OC(C)(C)C)CCc2ccccc2C1)C(=O)N[C@@H](CC(=O)O)C(=O)N[C@H](C(=O)O)C(C)C (stereo partly shown) [Compound 63] (HELM PEPTIDE1{[CC(C)(C)OC(=O)[*:2]].[O=C(C1(N[*:1])CCc2ccccc2C1)[*:2]].L.D.V}$$$$V2.0) | > 10 | –
29 | CNC(=O)[C@@H](NC(=O)[C@H](CC(=O)O)NC(=O)[C@H](CC(C)C)N(C)C(=O)c1ccccn1)C(C)C [Compound 126] | > 10 | –
30 | CC(C)C[C@H](NC(=O)Cc1ccc(NC(=O)Nc2ccccc2)cc1)C(=O)N[C@@H](CC(=O)O)C(=O)N[C@H](C(=O)N1CCC[C@H]1C(N)=O)C(C)C [Compound 201] ({NHPh-CO}-[X2]LDVP-NH2) | 0.05 to 10 | –
31 | Cc1ccccc1NC(=O)Nc1ccc(CC(=O)N[C@@H](CC(C)C)C(=O)N[C@@H](CC(=O)O)C(=O)N[C@H](C(=O)N2CCC[C@H]2C(N)=O)C(C)C)cc1 [Compound 148] ({NH(2-Me-phenyl)-CO}-[X2]LDVP-NH2) | < 0.05 | –
32 | CSCC[C@H](NC(=O)[C@H](CC(=O)O)NC(=O)[C@H](CCSC)NC(=O)Cc1ccc(NC(=O)Nc2ccccc2C)cc1)C(N)=O [Compound 225] | < 0.05 | –
33 | CC(C)C[C@H](NC(=O)c1ccc2ccccc2n1)C(=O)N[C@@H](CC(=O)O)C(=O)N[C@H](C(=O)Nc1ccccc1)C(C)C [Compound 125] | > 10 | –
34 | COC(=O)[C@@H](NC(=O)[C@H](CC(=O)O)NC(=O)[C@H](CC(C)C)NC(=O)CCCc1ccccc1)C(C)C [Compound 166] | > 10 | –
35 | COC(=O)[C@@H](NC(=O)[C@H](CC(=O)O)NC(=O)[C@H](CC(C)C)NC(=O)C1Cc2ccccc2CN1)C(C)C (stereo partly shown) [Compound 154] (HELM PEPTIDE1{[O=C(C1Cc2ccccc2CN1)[*:2]].L.D.V.[CO[*:1]]}$$$$V2.0) | > 10 | –
36 | Ac-FLDV-OH [Compound 152] | – | IC50 [1]: > 10 µM
37 | {3‑methoxy‑4‑(N'-phenylurea)phenylacetyl}-MDVP-OH [Compound 2] | – | IC50 [1]: < 0.05 µM
38 | B1 | – | IC50 [1]: > 10 µM
39 | {2‑MPUPA}-K(Ahx)DVP-OH [Compound 202] | – | IC50 [1]: 0.05 to 10 µM
40 | B2 | – | IC50 [1]: > 10 µM
41 | B3 | – | IC50 [1]: 0.05 to 10 µM
42 | {4‑(N'-2-hydroxyphenylurea)phenylacetyl}-MDVP-OH [Compound 146] | – | IC50 [1]: < 0.05 µM
43 | B4 | – | IC50 [1]: < 0.05 µM
